Measurements as given in patent publication US20170202818A1, “METHODS AND COMPOSITIONS TO MODIFY GSK-3 ACTIVITY” (Ohio University, priority 2014, published 2017).
Read-outs that look alike come from different tables or passages of the source.

Key:
[1] = test system: RAW 264.7 murine macrophages; test: western blotting of β-catenin and GSK-3 in RAW 264.7 macrophages; assay type: cell-based; settings: for expression of β-catenin protein: RAW 264.7, 0.5-25 μM, 5 hours; for expression of GSK-3: RAW 264.7, higher concentrations, e.g., 10 μM and 25 μM
Procedure: (§1) To test the ability of COB-187 and COB-152 to increase β-catenin levels, RAW 264.7 macrophages and PMA differentiated THP-1 cells were treated with COB-152 or COB 187 at different concentrations or 0.1% (v/v) DMSO solvent for 5 hours. Following treatment, protein was extracted and probed for β-catenin and total GSK-3 via western blotting.
(§2) More specifically, RAW 264.7 cells and PMA differentiated THP-1 cells were treated with varying concentrations of COB-187 or COB-152 dissolved in culture media containing 0.1% (v/v) dimethylsulfoxide (i.e., DMSO) solvent or with 0.1% (v/v) DMSO alone for 5 or 24 hours. After incubation, […] protein was extracted from the cells and quantified. More specifically, culture supernatant was collected and store at −80° C. until further use. The cells were lysed in 10 mM Tris HCl at pH 7.5, 150 mM NaCl, and 1% nonyl phenoxypolyethoxylethanol-40, containing a cocktail of protease inhibitors (Roche, Mannheim, Germany). Insoluble material was pelleted and the supernatant containing total protein as well as the culture supernatant was quantified using a Micro BCA protein kit. […] of protein was then resolved onto a denaturing gel, transferred to a nitrocellulose membrane, and immunoblotted with antibodies against GSK-3 and β-catenin. Signals were detected using the Li-Cor Odyssey Infrared Imaging System (Lincoln, Nebr.). Membranes were stripped and reprobed with primary antibody for β-actin as a loading control. All experiments were performed at least thrice in both RAW 264.7 and PMA differentiated THP-1 cells, and in duplicates.

[2] = test system: PMA differentiated THP-1 human macrophages stimulated with LPS; test: LPS-induced inflammatory cytokines in human macrophages (RT-PCR, ELISA); assay type: cell-based; settings: LPS 10 ng/mL, 5 hours
Procedure: (§3) THP-1 cells were differentiated using PMA (50 ng/mL) as previously described and stimulated with either LPS (10 ng/mL) or […] human Aβ(1-42) peptides alone, or in combination with COB-152, COB-187 or 0.1% DMSO solvent for 5 hours. Following incubation, the supernatant was collected and stored at −80° C. until assayed for IL-6, TNF-α, and IL-1β protein by ELISA, whereas RNA extracted from the cells was reverse transcribed and subjected to quantitative RT-PCR for quantification of IL-6, TNF-α, IL-1α, IL-1, and IFN-β mRNA. All experiments were performed at least thrice and in duplicates.
(§4) RNA extracted from differentiated THP-1 cells treated as previously described was reverse transcribed to cDNA and subjected to quantitative RT-PCR. Relative IL-6, TNF-α, IL-1α, IL-1, and IFN-β gene expression was determined by normalizing with Hprt1 using the comparative Ct method. Commercially available cytokine ELISA kits (BD Biosciences, Burlington, N.C.) were used to quantify the levels of secreted IL-6, TNF-α, and IL-1 protein in the supernatant obtained from differentiated THP-1 cells treated with either LPS (10 ng/mL) or 10 μM human Aβ(1-42) peptides alone, or in combination with COB-152, COB-187 or 0.1% DMSO solvent. The ELISA was performed according to the manufacturer's protocol. The supernatant was diluted with the assay diluent at different ratios as shown in the TABLE 4 below for IL-6, TNF-α, and IL-1β. All samples were tested in duplicates and the results were expressed as Mean±SD of the cytokine concentration (pg/mL). All results presented were corrected for dilution factor.

[3] = test system: RAW 264.7 murine macrophages; test: quantitative RT-PCR of β-catenin mRNA in RAW 264.7 cells; assay type: cell-based; settings: RAW 264.7, 4, 20 or 40 μM, 5 hours
Procedure: RAW 264.7 cells were treated with varying concentrations of COB-187, COB-152 or 0.1% (v/v) DMSO solvent alone for 5 or 24 hours. Following treatment, RNA was extracted from the cells and reverse transcribed. More specifically, total RNA was isolated using RNeasy plus mini kit according to the manufacturer's protocol and quantified using a Nanodrop 2000C Spectrophotometer. First-strand cDNA was synthesized from total RNA using cDNA Reverse Transcription Kit according to the manufacturer's protocol. Quantitative RT-PCR was performed using Taqman Gene Expression Assay (Life Technologies, Waltham, Mass.) and mouse primers for GAPDH and β-catenin. Relative gene expression was determined by normalizing with GAPDH using the comparative Ct method. All experiments were performed at least thrice in duplicates.

[4] = test system: LPS induced RAW macrophages; test: LPS-induced IL-6 mRNA in RAW 264.7 macrophages; assay type: cell-based; settings: LPS stimulated murine macrophages, 0.1, 1 or 10 μM
Procedure: RAW 264.7 were stimulated with either LPS (10 ng/mL) alone, or in combination with COB-152, COB-187 or 0.1% DMSO solvent for 5 hours. Following incubation, RNA was extracted from the cells. Quantitative RT-PCR was used to quantify expression of mRNA.

[5] = test system: PMA differentiated THP-1 cells; test: western blotting of β-catenin and GSK-3 in PMA differentiated THP-1 cells; assay type: cell-based, human; settings: for expression of β-catenin protein: PMA differentiated THP-1, 0.5-25 μM, 5 hours; for expression of GSK-3: PMA differentiated THP-1, higher concentrations, e.g., 10 μM and 25 μM
Procedure: RAW 264.7 cells were cultured in RPMI 1640 medium supplemented with 10% FBS and 0.5% penicillin-streptomycin stabilized solution. THP-1 cells were cultured and differentiated into macrophages using phorbol 12-myristate 13-acetate (i.e., PMA). More specifically, THP-1 cells were cultured in RPMI-1640 10% FBS supplemented with 0.05 mM 2-mercaptoethanol. For differentiation to a macrophage phenotype, THP-1 cells were stimulated with PMA (50 ng/mL) for 24 hours. Differentiated THP-1 cells were washed with fresh media twice before incubation for 24 more hours at 37° C., 5% CO2 in a humidified incubator. The monolayer was then treated with ox-LDL or native LDL (both at either 50 or 100 μg/mL) and LPS (10 ng/mL) for 4 hours. Undifferentiated THP-1 cells were cultured and treated under similar conditions were used as a control.
as §1, §2

[6] = test system: PMA differentiated THP-1 human macrophages stimulated with Aβ(1-42) peptides; test: Aβ(1-42)-induced inflammatory cytokines in human macrophages (RT-PCR, ELISA); assay type: cell-based; settings: Aβ(1-42) 10 μM, 5 hours; for concentration at which IL-1β protein production was decreased: ELISA; for IFN-β mRNA expression / IL-1α mRNA expression: dose-dependent
Procedure: as §3, §4

non-GSK-3 kinases = test: kinase screen, non-GSK-3 kinases; settings: COB-152 at 2 μM; COB-187 at 1 μM; FIG. 3
[7] = Alzheimer's disease, Phase IIb; cited from earlier work
[8] = cited from earlier work
GSK-3α = GSK-3α (Homo sapiens, UniProt P49840); test: fluorescence-based molecular assay of GSK-3α activity; settings: 60 minutes at room temperature, Ser/Thr substrate and ATP
Description: (§5) Subsequently, the solution was developed and the fluorescence was read to infer the activity of the protein.

GSK-3β = GSK-3β (Homo sapiens, UniProt P49841); test: fluorescence-based molecular assay of GSK-3β activity; settings: 60 minutes at room temperature, Ser/Thr substrate and ATP
Description: as §5

GSK-3α and GSK-3β = test: kinase screen, GSK-3; settings: COB-152 at 2 μM; COB-187 at 1 μM; FIG. 3

GSK-3α, sequence (P49840 whole entry, species assumed): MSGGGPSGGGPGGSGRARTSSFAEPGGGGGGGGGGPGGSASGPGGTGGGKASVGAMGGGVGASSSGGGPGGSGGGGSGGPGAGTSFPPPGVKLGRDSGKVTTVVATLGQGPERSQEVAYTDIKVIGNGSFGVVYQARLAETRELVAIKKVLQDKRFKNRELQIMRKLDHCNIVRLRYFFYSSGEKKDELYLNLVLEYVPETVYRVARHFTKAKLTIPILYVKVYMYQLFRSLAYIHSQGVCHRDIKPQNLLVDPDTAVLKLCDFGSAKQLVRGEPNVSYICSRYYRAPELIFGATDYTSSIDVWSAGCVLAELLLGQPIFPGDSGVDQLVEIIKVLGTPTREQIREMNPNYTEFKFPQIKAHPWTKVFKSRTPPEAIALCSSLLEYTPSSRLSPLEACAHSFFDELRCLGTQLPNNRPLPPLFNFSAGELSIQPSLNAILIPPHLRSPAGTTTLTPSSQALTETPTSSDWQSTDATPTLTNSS
GSK-3β, sequence (P49841 whole entry, species assumed): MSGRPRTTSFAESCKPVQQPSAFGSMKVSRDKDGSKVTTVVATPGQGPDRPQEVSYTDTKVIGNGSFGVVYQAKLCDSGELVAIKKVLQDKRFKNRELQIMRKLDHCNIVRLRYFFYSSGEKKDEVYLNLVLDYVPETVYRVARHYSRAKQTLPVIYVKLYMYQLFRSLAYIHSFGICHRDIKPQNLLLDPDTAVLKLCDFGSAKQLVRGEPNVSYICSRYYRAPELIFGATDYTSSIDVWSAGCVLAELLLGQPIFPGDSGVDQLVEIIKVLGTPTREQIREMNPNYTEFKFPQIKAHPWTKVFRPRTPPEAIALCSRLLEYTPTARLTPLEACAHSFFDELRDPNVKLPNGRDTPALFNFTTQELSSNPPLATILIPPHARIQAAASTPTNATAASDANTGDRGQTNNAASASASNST

SMILES | expression of β-catenin protein [1] | expression of GSK-3 [1] | IL-1α mRNA expression [2] | IL-6 production (mRNA and protein) [2] | TNF-α production (mRNA and protein) [2] | expression of β-catenin mRNA [3] | expression of β-catenin protein [5] | expression of GSK-3 [5] | IL-6 production (mRNA and protein) [6] | TNF-α production (mRNA and protein) [6] | concentration at which IL-1β protein production was decreased [6] [µM] | IFN-β mRNA expression [6] | IL-1α mRNA expression [6] | effect on non-GSK-3 kinases, such as the cyclin dependent protein kinases (non-GSK-3 kinases) | other results
OC1(c2ccccc2)CSC(=S)N1Cc1cccnc1 (stereo not shown) [COB-152] | increased in a dose-dependent manner | may also be affected | inhibited | dose-dependent decrease | dose-dependent decrease | did not alter | increased expression | may also be affected | dose-dependent decrease | dose-dependent decrease | ≥ 25 | inhibited | inhibited | little effect | concentration at which IL-1β protein production was decreased ([2]; ELISA): ≥ 50 µM; IL-6 mRNA production [4]: dose dependently inhibited
O=c1sn(-c2cccc3ccccc23)c(=O)n1Cc1ccccc1 [tideglusib] | – | – | – | – | – | – | – | – | – | – | – | – | – | – | primary endpoint [7]: primary endpoint was not achieved; progression of global cerebral atrophy compared to placebo ([8]; analysis of a sub-set of patients): reduced progression of global cerebral atrophy; primary endpoint ([8]; progressive supranuclear palsy, phase II): did not meet is primary endpoint
OC1(c2ccccc2)CSC(=S)N1Cc1ccncc1 (stereo not shown) [COB-187] | increased in a dose-dependent manner | may also be affected | inhibited | dose-dependent decrease | dose-dependent decrease | did not alter | increased expression | may also be affected | dose-dependent decrease | dose-dependent decrease | ≥ 10 | inhibited | inhibited | little effect | IC50, inhibition of GSK-3α activity (GSK-3α): nanomolar range; IL-1β protein production ([2]; ELISA): dose-dependent decrease; IC50, inhibition of GSK-3β activity (GSK-3β): nanomolar range; activity of GSK-3α/β in kinase screen (GSK-3α and GSK-3β): inhibit
